Assay results taken from patent US20070197452A1, “Treatment of amyloid-related diseases” (priority 2006, published 2007).
Entries after “also recorded” stand apart in the source; their conditions may differ.

Key:
[1] = molecular target: T1, Aβ42 (Homo sapiens, UniProt P05067); test: Plasma Aβ42 level; type: in vivo, mouse; details: TgCRND8 mice; 28 days of therapy at five months of age; untreated 1144±76 pg/ml
T1 construct: analyzed for Aβ40 and Aβ42 using commercially available kits; from tissue; host or cells: hemi-brain homogenates and plasma of TgCRND8 transgenic mice
Experimental: Plasma and Cerebral Aβ Content. Hemi-brain samples were homogenized in a buffered sucrose solution, followed by either 0.4% diethylamine/100 mM NaCl for soluble Aβ levels or cold formic acid for the isolation of total Aβ. After neutralization, the samples were diluted and analyzed for Aβ40 and Aβ42 using commercially available kits (BIOSOURCE International). Each hemisphere was analyzed in triplicate and the mean values±SEM reported. Western blot analyses were performed on all fractions using urea gels for Aβ species analyses. Aβ was detected using 6E10 (BIOSOURCE International) and Enhanced Chemiluminenscence (Amersham).
Plasma and cerebral Aβ content. Hemi-brain samples were homogenized in a buffered sucrose solution, followed by either a mixture of 0.4% diethylamine and 100 mM NaCl for soluble Aβ levels or cold formic acid for the isolation of total Aβ. After neutralization, samples were diluted and analyzed for Aβ40 and Aβ42 using commercially available kits (Biosource International). Each hemisphere was analyzed in triplicate and the mean±s.e.m. was reported. Western blot analyses were carried out on all fractions using urea gels for Aβ species analyses. Aβ was detected using 6E10 (Biosource International).

[2] = tested on: TgCRND8 mice; test: Accelerating rotarod, sensorimotor function; type: in vivo, mouse; details: treated vs untreated TgCRND8 mice and non-Tg littermates
Experimental: Behavioural tests: Morris Water Maze testing was performed as previously described. After non-spatial pre-training, mice underwent place discrimination training for 5 days with 4-trials per day, followed by a cued visible platform to rule out general motivational, learning deficits and motor problems, and a probe trial to evaluate memory. […] Open field test for motor activity was preformed as described previously. Duration of walking, pausing and grooming were analyzed as indices of spontaneous locomotor activity. Sensorimotor function was examined with an Economex™ accelerating rotarod (Columbus Instruments, Columbus, Ohio), as described elsewhere. The rod was set to accelerate at a rate of 0.2 r.p.m./s, from an initial, constant speed of 5 r.p.m. Latency to fall was recorded in four daily trials, conducted at 30 min intervals. All mice were trained for seven days before testing. The test day performance score for each animal was obtained by summing its latency to fall over the four trials
Behavioral tests. Morris water maze testing was carried out as previously described. […] Sensorimotor function was assessed with an Economex accelerating rotarod (Columbus Instruments) as previously described.
Duration of walking, pausing and grooming were analyzed as indices of spontaneous locomotor activity. […] Latency to fall was recorded in four daily trials, conducted at 30 min intervals. […]

[3] = wild-type mice
Experimental: Mice. […] A cohort of animals (n=10 mice per treatment arm) entered the study at five months of age, and outcomes were then analyzed after one month of treatment. The body weight, coat characteristics and in cage behaviour were monitored. Mannitol was used as a negative control for potential alterations in caloric intake. All experiments were performed according to the Canadian Council on Animal Care guidelines.
Mice. […] Mannitol was used as a negative control for potential alterations in caloric intake.

T1 sequence (P05067 672-713 limits assumed): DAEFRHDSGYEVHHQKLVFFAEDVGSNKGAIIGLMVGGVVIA

## OC1C(O)C(O)C(O)C(O)C1O (stereo not drawn) [epi-cyclohexanehexol, 1,2,3,4,5/6-(epi-) cyclohexanehexol, reference compound]
[1]
  Plasma Aβ42 levels: 1079 ± 79 pg/mL

## OC1C(O)C(O)C(O)C(O)C1O (stereo not drawn) [scyllo-cyclohexanehexol, 1,3,5/2,4,6-(scyllo-) cyclohexanehexol]
[2]
  rotarod sensorimotor function: no difference; also recorded: indistinguishable
[3]
  survival, weight, fur condition, cage behavior: no effect on survival, weight, fur condition or cage behavior
